Tested on: COVID-19
Assay: Retrospective analysis of international COVID-19 cohort (TriNetX COVID-19 Research Network), Dupilumab
Type: in vivo, human
Conditions: for Risk Difference (95% CI), Deceased / Risk Difference (95% CI), Ventilated: with vs without Dupilumab
[1] = Diagnoses Matching, 65 patients with Dupilumab
[2] = Dupilumab prescribed prior to COVID-19 diagnosis
[3] = Full Cohort, 81 patients with Dupilumab

Dupilumab: anti-human IL4Rα monoclonal antibody that blocks IL-13 and IL-4 signaling; sold as DUPIXENT
Deceased (number of patients) With Dupilumab (1:1 Propensity Score Matching, 81 patients): 0
Risk Difference (95% CI), Deceased (1:1 Propensity Score Matching): 12.3% (5.2-19.5)
Serum C-Reactive Protein (CRP) (COVID-19 patients With Dupilumab): 25.3 mg/L
Deceased (number of patients) With Dupilumab [1]: 0
Ventilated (number of patients) With Dupilumab [1]: 0
Risk Difference (95% CI), Deceased (Diagnoses Matching): 1.83% (1.69-1.97)
Risk Difference (95% CI), Ventilated (Diagnoses Matching): 0.67% (0.58-0.75)
risk of death in COVID-19 [2]: lower risk
risk of ventilation in COVID-19 [2]: lower risk
CRP levels (Dupilumab-prescribed patients with COVID-19): reduced
Deceased (number of patients) With Dupilumab [3]: 0
Ventilated (number of patients) With Dupilumab [3]: 0
Risk Difference (95% CI), Deceased (Full Cohort): 1.98% (1.94-2.03)
Risk Difference (95% CI), Ventilated (Full Cohort): 0.37% (0.35-0.39)
CRP Sub-cohort Difference (With vs Without Dupilumab): 12.
